We go through 7 compounds from patent EP4730355A1, “TYPING SYSTEM AND METHOD FOR HR-POSITIVE/HER2-NEGATIVE BREAST CANCER” (Lumitype Medical (Huzhou) Co., Ltd., priority 2023, dated 2024).

One assay deals with SNF4 tumors. Kind of assay: PDO drug sensitivity testing of tyrosine kinase inhibitors. The note with it: for IC50: SNF4 tumors compared with other subtypes, PDO. The format is cell-based, human. The method, then: (§1) Briefly, the fresh breast cancer tissue is cut into small pieces using a sterile surgical knife. The tissue was digested and resuspended in 10 mL of TAC buffer, incubated for 3 minutes to remove red blood cells, and passed through a […] cell strainer (Corning). For passaging, 5 ml of harvesting solution (Trevigen, 3700-100-01) was used to digest the basement membrane extract (BME), which was incubated on ice for 1 hour. Subsequently, the organoids were centrifuged at 350 g for 5 minutes, washed in digestion buffer, and centrifuged. Next, 3 mL of TrypLE Express (Invitrogen) was added, and the organoids were incubated at room temperature for 3 minutes and then mechanically dissociated into small cell clusters using a pipette. The organoids were passaged every 2-3 weeks at a dilution ratio of 1:2-3.
(§2) Drug response testing of triple-negative breast cancer (TNBC) organoids was conducted according to the method of the published paper (Xiao Y, Ma D, Yang YS, Yang F, Ding JH, Gong Y, et al. Comprehensive metabolomics expands precision medicine for triple-negative breast cancer. CELL RES. 2022;32(5):477-90 doi 10.1038/s41422-022-00614-0.). Organoids without undergoing organoid drug treatment were harvested in good condition and digested into single cells. 25 microliters of organoid suspension was added to black cell-repellent surface of a 384-well plate with transparent bottoms (Greiner 781976-SIN) at 1 × 10^3 to 3 × 10^3 cells per well, and cultured for an additional 5-6 days prior to drug treatment. Organoids were co-cultured with the drug for 1 week and then tested for survival. According to the manufacturer's instructions, organoid cell survival rate was assessed by the CellTiter-Glo 3D cell survival assay (Promega, G9683).
Next, based on the identified key receptors, 12 tyrosine kinase inhibitors were selected to construct a "tyrosine kinase inhibitor combination," including tyrosine kinase inhibitors targeting the ErbB family (afatinib, lapatinib, pyrotinib), the PDGFR family (axitinib, sunitinib), the VEGFR family (foretinib, apatinib), the TAM receptor (sitravatinib), as well as some multi-target tyrosine kinase inhibitors (sorafenib, vandetanib, regorafenib, famitinib). The combination is used for PDO drug sensitivity testing to verify the tyrosine kinase inhibitor most sensitive to SNF4 tumors (FIG. 38). […] Combining the drug sensitivity results of the above 12 tyrosine kinase inhibitors and the targets of the above four drugs, VEGFR and PDGFR signaling were preliminarily identified as potential therapeutic vulnerabilities of SNF4 tumors.

For assay [1], the system named is signaling pathway activated by PDGF in SNF4 tumor. Kind of assay: PDGF-activated signaling pathway changes after tyrosine kinase inhibitor treatment. The format is cell-based, human.
For assay [2], the system named is SNF4 subtype cancer-associated fibroblasts (CAF). Kind of assay: Efficacy on patient-derived cancer cells co-cultured with fibroblasts. Format: cell-based, human. The note with it: sorafenib (1 µM). Here is the method:
(F-G) The efficacy of sorafenib (1 µM) on patient-derived cancer cells co-cultured with fibroblasts. Scale bar: 100 micrometers. Cancer cells are treated with sorafenib three times. One representative experiment is shown. The experiment is repeated three times, and the results are similar.

A further assay concerns four subtypes of PDOs. Kind of assay: PDO drug response testing of traditional endocrine therapies (CellTiter-Glo 3D cell survival assay). Format: cell-based, human. The note with it: compared among four subtypes of PDOs (n = 88). Here is the method: as §1, §2
The sensitivity of four subtypes of PDOs (n = 88) to three traditional endocrine therapies (estrogen deprivation, 4-hydroxytamoxifen (4OHtam), and fulvestrant) was compared on a PDO drug testing platform. […] In order to investigate the potential mechanism of SNF1 tumor sensitivity to endocrine therapy, the endocrine therapy-related pathways in the multi-omics data from Fudan University Shanghai Cancer Center were analyzed. […] In addition, the expression of endocrine therapy resistance pathways was also compared among the four subtypes.
In general terms: ATP-based viability assays read luminescence as a measure of living cells.

Assay [3] relates to advanced HR+/HER2- breast cancer. Kind of assay: Real-world retrospective clinical cohort of advanced HR+/HER2- breast cancer. The note with it: SNF3 and SNF4 subtypes; advanced cohort of FUSCC, n = 277; p = 0.033. The format is in vivo, human. The source says: Frequency tables and summary statistics were used to characterize data distribution. Wilcoxon test and Kruskal-Wallis test were used to compare continuous variables and categorical variables, and Pearson chi-square test and Fisher's exact test were used to compare unordered categorical variables. Survival curves were established using the Kaplan-Meier product-limit method and compared with the log-rank test to obtain RFS and PFS. RFS was defined as the time from diagnosis to the first recurrence or diagnosis of contralateral breast cancer. PFS was defined as the interval from the start of treatment to disease progression or death due to any cause (whichever occurs first), or to the time of the last PFS assessment for patients with progression-free survival. Univariate and multivariate Cox proportional hazards regression models were constructed to evaluate the hazard ratio (HR) and the corresponding 95% confidence interval (CI). All analyses were performed using R software package version 3.6.1 (https://cran.r-project.org/).
For deeper insights into the landscape of metastatic HR+/HER2- breast cancer, we constructed a real-world cohort of patients with advanced HR+/HER2- breast cancer from FUSCC and invited other three centers to participate in our real-world study. […] Their tumor progression were evaluated according to RECIST v1.1.

For another assay, the system named is SNF3-PDO. Kind of assay: PDO drug response testing with CDK4/6 inhibitor and PARP inhibitor (CellTiter-Glo 3D cell survival assay). The note with it: for growth ability of SNF3-PDO: single drug; for PDO growth ability: SNF3 subtype and the non-SNF3 subtype (legend of FIGs. 31 and 32). Format: cell-based, human. The method, then: as §1, §2
In order to gain an in-depth understanding of the biological characteristics of the SNF3 subtype, low-concentration 4-hydroxytamoxifen was used to induce PDO over an extended period to establish a model for studying acquired resistance to endocrine therapy (Xi Jin, Yi-Fan Zhou, Ding Ma, Shen Zhao, Cai-Jin Lin, Yi Xiao, et al. Integrative Molecular Classification of HR+/HER2- Breast Cancer Guides Precision Treatment. Nature Genetics under minor revision. 2023.02.26.).
In view of the high enrichment of SNF3 tumors in homologous recombination deficiency score, chromosomal instability, and cell cycle activity, the response of SNF3 PDOs to CDK4/6 inhibitors and PARP inhibitors was tested. […] In addition, regardless of BRCA mutation, the homologous recombination deficiency score of SNF3 tumors was much higher (FIG. 35). The above results indicated the therapeutic susceptibility of the SNF3 subtype to CDK4/6 inhibitors and PARP inhibitors; therefore, CDK4/6 inhibitors and PARP inhibitors or combinations thereof may be potential accurate treatment strategies for SNF3 tumors.

`CNC(=O)c1cc(Oc2ccc(NC(=O)Nc3ccc(Cl)c(C(F)(F)F)c3)cc2)ccn1` [sorafenib]: the IC50 result at SNF4 tumors was “lower than that of other subtypes”. Further, in assay [1], the “signaling pathway activated by PDGF” value is “significantly downregulated”. The “sensitivity of SNF4 subtype cancer-associated fibroblasts (CAF)” value in assay [2] is “sensitive”.

Regarding `C[C@]12CC[C@@H]3c4ccc(O)cc4C[C@@H](CCCCCCCCC[S+]([O-])CCCC(F)(F)C(F)(F)F)[C@H]3[C@@H]1CC[C@@H]2O` (some centres unmarked) [fulvestrant], the values for the survival rate entry in the assay on four subtypes of PDOs (SNF1-PDO) and in the assay with four subtypes of PDOs (SNF4-PDO) were “lowest survival rate” and “relatively higher survival rate”, respectively. Besides, the “progression-free survival (PFS)” value in assay [3] is given as “worse progression-free survival”.

On to `CNC(=O)c1cc(Oc2ccc(NC(=O)Nc3ccc(Cl)c(C(F)(F)F)c3)c(F)c2)ccn1` [regorafenib], for which, at SNF4 tumors, the IC50 entry is recorded as “lower than that of other subtypes”. For the same compound, in the assay with SNF4 tumors (after treatment, Wilcoxon test), the “cell viability of SNF4 tumors” value was “significantly decreased”.

Turning to `CCN(CC)CCN1CCc2[nH]c(/C=C3\C(=O)Nc4ccc(F)cc43)c(C)c2C1=O` [famitinib], the IC50 result at SNF4 tumors was “lower than that of other subtypes”. Further, the “signaling pathway activated by PDGF” value in assay [1] is recorded as “significantly downregulated”.

Consider 4-hydroxytamoxifen, for which the figures for the survival rate result with four subtypes of PDOs (SNF1-PDO) and with four subtypes of PDOs (SNF4-PDO) were “lowest survival rate” and “relatively higher survival rate”, respectively. Besides, the “sensitivity to endocrine therapy” value in the assay with SNF3-PDO (SNF3-PDO after long-term induction with low-concentration 4-hydroxytamoxifen, unlike other subtypes) is on record as “less sensitive to endocrine therapy”.

Take `O=C(c1cc(Cc2n[nH]c(=O)c3ccccc23)ccc1F)N1CCN(C(=O)C2CC2)CC1` [olaparib]: in the assay with SNF3-PDO, the “growth ability of SNF3-PDO” value is on record as “significantly inhibited” and the PDO growth ability result is on record as “significantly inhibited”.

Regarding `CCN1CCN(Cc2ccc(Nc3ncc(F)c(-c4cc(F)c5nc(C)n(C(C)C)c5c4)n3)nc2)CC1` [abemaciclib, N-[5-[(4-ethyl-1-piperazinyl)methyl]-2-pyridinyl]-5-fluoro-4-[4-fluoro-2-methyl-1-(1-methylethyl)-1H-benzimidazol-6-yl]-2-pyrimidinamine], in the assay with SNF3-PDO, the “growth ability of SNF3-PDO” value was “significantly inhibited” and the PDO growth ability entry is “significantly inhibited”.
